Results published in US20260284042A1, “DOSING REGIMEN” (ViiV Healthcare UK (No.3) Limited, priority 2024, published 2026).
Read-outs that look alike come from different tables or passages of the source.

What was measured:
[1] = Cabotegravir population pharmacokinetic (PopPK) model, CAB 200 mg/mL IM injections; design: species or system human
Procedure: In a first set of simulations, a cabotegravir population pharmacokinetic (PopPK) model was built based on PK data following cabotegravir (CAB) 200 mg/mL intramuscular (IM) injections collected in 16 historical studies (Population pharmacokinetics of cabotegravir following administration of oral tablet and long-acting intramuscular injection in adult HIV-1-infected and uninfected subjects. Han K, Baker M, Lovern M, Paul P, Xiong Y, Patel P, Moore K P, Seal C S, Cutrell A G, D'Amico R D, Benn P D, Landovitz R J, Marzinke M A, Spreen W R, Ford S L. Br J Clin Pharmacol. 2022 October;88 (10): 4607-4622. doi: 10.1111/bcp. 15439. Epub 2022 Jul. 4. PMID: 35695476) and updated based on PK data from 19 studies: LAI116585, LAI117010, LAI117011, LAI117020, 201741, 201479, 201480, 205696, LAI116482 (LATTE), LAI115428, LAI116815, 200056 (LATTE-2), 201120 (ECLAIR), 201103 (HPTN077), 201584 (FLAIR), 201585 (ATLAS), 207966 (ATLAS-2M), 201738 (HPTN 083) and 201739 (HPTN 084). A total of 34,850 CAB plasma concentrations collected at various time points from 2,694 participants were used to build this PopPK model.

[2] = system: HIV-1 strains; settings: integrase strand transfer inhibitor; antiviral activity against a broad range of HIV-1 strains; cited from earlier work
[3] = cited from earlier work

C[C@H]1CO[C@@H]2Cn3cc(C(=O)NCc4ccc(F)cc4F)c(=O)c(O)c3C(=O)N12 [Cabotegravir, (3S, 11aR)-N-((2,4-difluorophenyl)methyl)-6-hydroxy-3-methyl-5,7-dioxo-2,3,5,7,11,11a-hexahydro (1,3) oxazolo (3,2-a)pyrido (1,2-d) pyrazine-8-carboxamide]
Apparent central clearance (CL/F), higher in current smokers [1]: 16.4% | KA2 versus BMI [1]: decreased with increasing BMI | KA2 versus needle length [1]: lower with longer needle length | Long-acting intramuscular gluteal absorption rate constant (KA2), lower in people assigned female at birth than male at birth ([1]; CAB 200 mg/mL IM injections): 46.5% | KA2, higher in study 201120 (ECLAIR) than other studies ([1]; after adjusting for all covariates): 22.8% | KA2 versus split injections ([1]; people assigned female at birth): not associated with split injections | KA2, higher if the injection was split ([1]; people assigned male at birth): 50.8% | potency [2]: subnanomolar | 10th percentile of Ctau observed ([3]; Phase 3 study 201738 (HPTN 083), people assigned male at birth): 1.05 µg/mL | 10th percentile of Ctau observed ([3]; Phase 3 study 201739 (HPTN 084), people assigned female at birth): 1.39 µg/mL
